Tests used:
human CB1 receptor [1] = molecular target: T1, human CB1 receptor (Homo sapiens, UniProt P21554); assay: bioSensAll β-arrestin plasma membrane (PM) translocation BRET biosensor (+GRK2) assay in transfected HEK293 cells, inhibition of CP-55,940 response; assay type: cell-based; settings: HEK293 cells transfected with hCB1 and β-arrestin PM translocation biosensor (+GRK2), test compound then EC75 of CP-55,940 (100 nM), overnight incubation, read-out: CB1 wt βarr2 EC50
T1 construct: expressed in transfected cells; host or cells: HEK293
T1 sequence (P21554 whole entry): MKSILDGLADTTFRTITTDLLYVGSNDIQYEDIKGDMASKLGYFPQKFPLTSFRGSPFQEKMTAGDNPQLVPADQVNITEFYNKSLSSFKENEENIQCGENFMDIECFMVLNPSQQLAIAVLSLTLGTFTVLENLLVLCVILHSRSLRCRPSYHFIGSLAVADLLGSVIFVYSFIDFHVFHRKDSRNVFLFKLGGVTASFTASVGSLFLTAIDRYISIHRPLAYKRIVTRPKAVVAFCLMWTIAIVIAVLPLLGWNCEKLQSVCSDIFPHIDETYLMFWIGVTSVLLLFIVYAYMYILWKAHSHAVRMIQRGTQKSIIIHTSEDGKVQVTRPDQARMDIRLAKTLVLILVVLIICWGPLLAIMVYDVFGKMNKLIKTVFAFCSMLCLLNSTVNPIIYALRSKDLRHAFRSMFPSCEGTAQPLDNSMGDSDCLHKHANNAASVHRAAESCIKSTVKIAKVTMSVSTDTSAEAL
Description: (§1) Using polyethylenimine (PEI) transfection agent, HEK293 cells were transfected in suspension with the human CB1 or CB1 b receptor and one of the following bioSensAll® assays: GAPL-Gi2, or β-arrestin plasma membrane (PM) translocation biosensor (+GRK2). Cells were directly seeded in 96-well plates immediately following transfection.
(§2) Cells were incubated with coelenterazine (luciferase substrate) and different test compounds prior to the measurement of BRET signals.
(§3) Used in this project are i) Ga plasma membrane (GAPL) biosensors and the ii) β-arrestin plasma membrane translocation biosensor. • i) GAPL sensors are used to monitor the activation of heterotrimeric G proteins at the plasma membrane upon receptor stimulation. Specifically, these multimolecular BRET sensors detect the plasma membrane recruitment of proteins that interact with active Ga subunits in a G protein family-selective manner. G protein activation following receptor stimulation generally leads to an increase in the BRET signal. • ii) The multimolecular β-arrestin membrane recruitment biosensors allow for real-time spatio-temporal monitoring of β-arrestin 1 and β-arrestin 2 following GPCR activation. Specifically, these β-arrestin sensors were designed to detect the recruitment of proteins to the plasma membrane β-arrestin PM) with localization to compartment resulting in an increased BRET signal. c) Cell Culture Conditions HEK293 cells were maintained in Dulbecco's Modified Eagle Medium (DMEM) (Wisent; cat #319-030-CL: without sodium pyruvate, with 4.5 g/L glucose, without L-glutamine) supplemented with 1% penicillin-streptomycin (Wisent; cat #450-201-EL) and 2 or 10% fetal bovine serum (Wisent cat #090150).
(§4) HEK293 cells were co-transfected with hCB1 or hCB1b and one of the above-listed bioSensAll® assays. For each transfection condition: • the total amount of transfected DNA was kept constant at 1 μg per mL of cell culture to be transfected; whenever necessary, salmon sperm DNA (Invitrogen, cat #15632011) was used as ‘carrier’ DNA to supplement plasmid DNA (i.e., biosensor and receptor); • the PEI (polyethylenimine 25 kDa linear, PolyScience, cat #23966) to DNA ratio (ug:ug) was fixed at 3:1. Transfections were Carried Out as Follows: • DNA and PEI were first diluted separately in 150 mM NaCl. The volume of the diluent in each tube corresponds to 5% of the cell culture volume to be transfected. • Once DNA and PEI were diluted, the PEI-containing solution was added to the DNA solution and the DNA/PEI mixture immediately vortexed for 5 seconds. • The DNA/PEI mixture was incubated for at least 20 minutes at room temperature to allow for the formation of DNA/PEI complexes. • During the incubation, HEK293 cells were detached, counted and re-suspended in culture medium (composition specified above). • At the end of the incubation period, the DNA/PEI mixture was added to the cells. • Cells were finally distributed in 96-well plates (White Opaque 96-well/Microplates, Greiner, cat #655083 or CulturPlate-96, White Opaque 96-well Microplate, PerkinElmer, cat #6005688) at a density of 30 000 cells per well.
(§5) • Using 450-Select TS Biotek plate washer, culture medium was aspirated and replaced with 100 μl of Hank's Balanced Salt Solution buffer (HBSS) (Wisent, cat #319-067CL: without red phenol; with sodium bicarbonate, with calcium and magnesium, with HEPES) per well. This process was performed a total of two times (i.e., 2 washes). • After the washing step, the HP D300 digital dispenser (Tecan) was used to inject increasing doses (12) of test compounds (ranging from 0-600 nM) to wells. […]

human CB1 receptor [2] = molecular target: T1, human CB1 receptor; assay: bioSensAll GAPL-Gi2 BRET biosensor assay in transfected HEK293 cells, inhibition of CP-55,940 response; assay type: cell-based; settings: HEK293 cells transfected with hCB1 and GAPL-Gi2 biosensor, test compound then EC75 of CP-55,940 (0.1 nM), overnight incubation, read-out: CB1 wt Gi2 EC50
Description: as §1, §2, §3, §4, §5

| Structure (SMILES) | EC50 (human CB1 receptor [1]) | EC50 (human CB1 receptor [2]) |
| --- | --- | --- |
| CC(=O)NC(N)=NC(=NS(=O)(=O)c1ccc(Cl)cc1)N1CCC(c2ccccc2)C(c2ccc(Cl)cc2)=N1 (single isomer, unassigned) [Compound 1 Isomer 1, N-[(E)-N′-[(Z)-C-[6-(4-chlorophenyl)-5-phenyl-4,5-dihydro-3H-pyridazin-2-yl]-N-(4-chlorophenyl)sulfonylcarbonimidoyl]carbamimidoyl]acetamide] | > 30000 nM | 430 nM |
| CC(=O)NC(N)=NC(=NS(=O)(=O)c1ccc(Cl)cc1)N1CCC(c2ccccc2)C(c2ccc(Cl)cc2)=N1 (single isomer, unassigned) [Compound 1 Isomer 2, N-[(E)-N′-[(Z)-C-[6-(4-chlorophenyl)-5-phenyl-4,5-dihydro-3H-pyridazin-2-yl]-N-(4-chlorophenyl)sulfonylcarbonimidoyl]carbamimidoyl]acetamide] | 3.3 nM | 1.2 nM |
| CC(=O)N/C(N)=N/C(=N/S(=O)(=O)N1CCCCC1)N1CCC(c2ccccc2)C(c2ccc(Cl)cc2)=N1 (single isomer, unassigned) [Compound 2 Isomer 1, N-[(E)-N′-[(Z)-C-[6-(4-chlorophenyl)-5-phenyl-4,5-dihydro-3H-pyridazin-2-yl]-N-(1-piperidylsulfonyl)carbonimidoyl]carbamimidoyl]acetamide] | 23600 nM | 300 nM |
| CC(=O)N/C(N)=N/C(=N/S(=O)(=O)N1CCCCC1)N1CCC(c2ccccc2)C(c2ccc(Cl)cc2)=N1 (single isomer, unassigned) [Compound 2 Isomer 2, N-[(E)-N′-[(Z)-C-[6-(4-chlorophenyl)-5-phenyl-4,5-dihydro-3H-pyridazin-2-yl]-N-(1-piperidylsulfonyl)carbonimidoyl]carbamimidoyl]acetamide] | 1.5 nM | 0.65 nM |
| CC(=O)N/C(N)=N/C(=N/S(=O)(=O)N1CCC(C(F)(F)F)CC1)N1CCC(c2ccccc2)C(c2ccc(Cl)cc2)=N1 (single isomer, unassigned) [Compound 3 Isomer 1, N-[(E)-N′-[(Z)-C-[6-(4-chlorophenyl)-5-phenyl-4,5-dihydro-3H-pyridazin-2-yl]-N-[[4-(trifluoromethyl)-1-piperidyl]sulfonyl]carbonimidoyl]carbamimidoyl]acetamide] | 14100 nM | 190 nM |
| CC(=O)N/C(N)=N/C(=N/S(=O)(=O)N1CCC(C(F)(F)F)CC1)N1CCC(c2ccccc2)C(c2ccc(Cl)cc2)=N1 (single isomer, unassigned) [Compound 3 Isomer 2, N-[(E)-N′-[(Z)-C-[6-(4-chlorophenyl)-5-phenyl-4,5-dihydro-3H-pyridazin-2-yl]-N-[[4-(trifluoromethyl)-1-piperidyl]sulfonyl]carbonimidoyl]carbamimidoyl]acetamide] | 1.3 nM | 0.64 nM |
| CC(=O)N/C(N)=N/C(=N/S(=O)(=O)N1CCC(F)(F)CC1)N1CCC(c2ccccc2)C(c2ccc(Cl)cc2)=N1 (single isomer, unassigned) [Compound 4 Isomer 1, N-[(E)-N′-[(Z)-C-[6-(4-chlorophenyl)-5-phenyl-4,5-dihydro-3H-pyridazin-2-yl]-N-[(4,4-difluoro-1-piperidyl)sulfonyl]carbonimidoyl]carbamimidoyl]acetamide] | > 30000 nM | > 30000 nM |
| CC(=O)N/C(N)=N/C(=N/S(=O)(=O)N1CCC(F)(F)CC1)N1CCC(c2ccccc2)C(c2ccc(Cl)cc2)=N1 (single isomer, unassigned) [Compound 4 Isomer 2, N-[(E)-N′-[(Z)-C-[6-(4-chlorophenyl)-5-phenyl-4,5-dihydro-3H-pyridazin-2-yl]-N-[(4,4-difluoro-1-piperidyl)sulfonyl]carbonimidoyl]carbamimidoyl]acetamide] | 1.4 nM | 0.67 nM |
| CC(=O)N/C(N)=N/C(=N/S(=O)(=O)N1CCCC(F)(F)C1)N1CCC(c2ccccc2)C(c2ccc(Cl)cc2)=N1 (single isomer, unassigned) [Compound 5 Isomer 1, N-[(E)-N′-[(Z)-C-[6-(4-chlorophenyl)-5-phenyl-4,5-dihydro-3H-pyridazin-2-yl]-N-[(3,3-difluoro-1-piperidyl)sulfonyl]carbonimidoyl]carbamimidoyl]acetamide] | 400 nM | 150 nM |
| CC(=O)N/C(N)=N/C(=N/S(=O)(=O)N1CCCC(F)(F)C1)N1CCC(c2ccccc2)C(c2ccc(Cl)cc2)=N1 (single isomer, unassigned) [Compound 5 Isomer 2, N-[(E)-N′-[(Z)-C-[6-(4-chlorophenyl)-5-phenyl-4,5-dihydro-3H-pyridazin-2-yl]-N-[(3,3-difluoro-1-piperidyl)sulfonyl]carbonimidoyl]carbamimidoyl]acetamide] | 0.72 nM | 0.43 nM |
| CC(=O)NC(N)=NC(=NS(=O)(=O)c1cc(F)cc(F)c1)N1CCC(c2ccccc2)C(c2ccc(Cl)cc2)=N1 (single isomer, unassigned) [Compound 6 Isomer 1, N-[(E)-N′-[(Z)-C-[6-(4-chlorophenyl)-5-phenyl-4,5-dihydro-3H-pyridazin-2-yl]-N-(3,5-difluorophenyl)sulfonylcarbonimidoyl]carbamimidoyl]acetamide] | 380 nM | 39 nM |
| CC(=O)NC(N)=NC(=NS(=O)(=O)c1cc(F)cc(F)c1)N1CCC(c2ccccc2)C(c2ccc(Cl)cc2)=N1 (single isomer, unassigned) [Compound 6 Isomer 2, N-[(E)-N′-[(Z)-C-[6-(4-chlorophenyl)-5-phenyl-4,5-dihydro-3H-pyridazin-2-yl]-N-(3,5-difluorophenyl)sulfonylcarbonimidoyl]carbamimidoyl]acetamide] | 2.6 nM | 0.68 nM |
| CC(=O)N/C(N)=N\C(=N\S(=O)(=O)c1ccc(C(F)(F)F)cc1)N1CCC(c2ccccc2)C(c2ccc(Cl)cc2)=N1 (single isomer, unassigned) [Compound 7 Isomer 1, N-[(E)-N′-[(Z)-C-[6-(4-chlorophenyl)-5-phenyl-4,5-dihydro-3H-pyridazin-2-yl]-N-[4-(trifluoromethyl)phenyl]sulfonyl-carbonimidoyl]carbamimidoyl]acetamide] | 580 nM | 200 nM |
| CC(=O)N/C(N)=N\C(=N\S(=O)(=O)c1ccc(C(F)(F)F)cc1)N1CCC(c2ccccc2)C(c2ccc(Cl)cc2)=N1 (single isomer, unassigned) [Compound 7 Isomer 2, N-[(E)-N′-[(Z)-C-[6-(4-chlorophenyl)-5-phenyl-4,5-dihydro-3H-pyridazin-2-yl]-N-[4-(trifluoromethyl)phenyl]sulfonyl-carbonimidoyl]carbamimidoyl]acetamide] | 2.1 nM | 0.42 nM |
| CC(=O)NC(=N)/N=C(/NS(=O)(=O)c1ccc(C(F)(F)F)cn1)N1CCC(c2ccccc2)C(c2ccc(Cl)cc2)=N1 (single isomer, unassigned) [Compound 8 Isomer 1, N-[(NE)-N-[[6-(4-chlorophenyl)-5-phenyl-4,5-dihydro-3H-pyridazin-2-yl]-[[5-(trifluoromethyl)-2-pyridyl]sulfonylamino]methylene]carbamimidoyl]acetamide] | > 30000 nM | > 30000 nM |
| CC(=O)NC(=N)/N=C(/NS(=O)(=O)c1ccc(C(F)(F)F)cn1)N1CCC(c2ccccc2)C(c2ccc(Cl)cc2)=N1 (single isomer, unassigned) [Compound 8 Isomer 2, N-[(NE)-N-[[6-(4-chlorophenyl)-5-phenyl-4,5-dihydro-3H-pyridazin-2-yl]-[[5-(trifluoromethyl)-2-pyridyl]sulfonylamino]methylene]carbamimidoyl]acetamide] | 8.5 nM | 1.9 nM |
